Measurements: patent publication US11565003B2, “Mechanical opening of lipid bilayers by molecular nanomachines” (William Marsh Rice University, priority 2016, dated 2023)

Assays:
NIH 3T3 cells [1] = assay: UV-activated nanomechanical necrosis, live cell confocal microscopy, NIH 3T3; format: cell-based, mouse; settings: for Time of Full Necrosis / Time of Initial Necrosis / % acceleration for full necrosis: 355 nm UV; for % acceleration for full necrosis: versus UV upon blank cells
Protocol: Following the synthetic bilipid vesicle experiments, nanomechanical action upon live cells was studied using confocal microscopy aided by a super-resolution technique called Phase Modulation Nanoscopy. Applicants used two experimental methods. In the first method (Method A), the molecular motors were loaded into the cell media and the imaging was initiated within 5 minutes to 24 hours. In the second method, (Method B), the molecular motors were loaded into the cell media, incubated for 30 minutes to 24 hours, and then washed three times with fresh molecular motor-free media before imaging. […]
(§1) Microscopy cells were seeded in untreated iBibi 100 μL live cell channels and allowed to grow to 40% to 60% confluence, at 37° C. in 5% CO2. At this stage, the medium was replaced and cells were treated with the studied nanomachines and co-stains as appropriate, with 0.1% DMSO (as detailed above) present in the final imaging medium. For live cell imaging, DMEM/F12 media (10% FBS) lacking phenol red was used from this point onwards. Following incubation, where Method B was used, the channels were washed with live cell imaging media and imaged using a purpose build incubator housing the microscope maintaining 37° C., 5% CO2 and 10% humidity.
(§2) All live cell imaging experiments used either NIH 3T3 mouse skin fibroblast cells, PC-3 cells, a grade 3 human prostate adenocarcinoma, or Chinese hamster ovary cells (CHO). These are all well-studied cell lines with discrete morphological compositions. Each molecular machine was used as a stock solution at 0.10 to 1.00 μM with total dimethyl sulfoxide (DMSO) concentrations not exceeding 0.1% in the final cell media in order to avoid unwanted cell membrane permeabilization, the DMSO being required for solubility of the organic nanomachines. All loading experiments are carried out in a light-suppressed manner and the possibility of induced or accelerated uptake due to interaction between the molecular motors and the applied co-stain has been eliminated using a series of individual and reversed loading experiments.
(§3) All experimental imaging parameters (i.e., laser beam size, confocal pinhole size, laser intensity, line scanning speed, scanning area (field of view, FOV), and line averaging sequences) were kept constant throughout the experiments. The accuracy and errors associated with the establishment of accelerated necrosis are determined based on one dual channel imaging sequence, which takes 15 seconds in total. This imaging sequence has been carefully established using untreated live cells.
(§4) Steady state fluorescence images were recorded using a PhMoNa enhanced Leica SP5 II LSCM equipped with a HCX PL APO 63×/1.40 NA LambdaBlue Oil immersion objective. As an initial control experiment to establish the UV-induced cell toxicity threshold, while mitigating voxel exposure and ensuring sufficient laser dwell time, an imaging sequence has been established to monitor cell morphological and physiological changes as a function of time. All experiments used cell-line-determined culture medium containing 0.1% DMSO.
The applied 100 Hz detection sequence was based on a bidirectional dual-channel continuous scanning method where a minimalistic non-damaging visible laser light (458 nm, 0.2 mW) is used in conjunction with the above detailed UV exposure. This is set as a 2 line/scan accumulation parallel acquisition sequence that is recorded as a function of time. Studied channels correspond to transmission images and UV-induced mitochondrial auto-fluorescence detected at 460 to 550 nm. Applicants further confirmed that the effectiveness of monitoring the UV-activated nanomechanical action on live cells using a conventional CW mercury-arc excitation source equipped with an epi-fluorescence setup consisting of a Zeiss Axiovert 200M inverted microscope, as discussed in FIGS. 18A-C. […]

PC-3 cells = assay: UV-activated nanomechanical necrosis, live cell confocal microscopy, PC-3; format: cell-based, human; settings: for Time of Full Necrosis / Time of Initial Necrosis / % acceleration for full necrosis: 355 nm UV; for % acceleration for full necrosis: versus UV upon blank cells
Protocol: (§5) Following the synthetic bilipid vesicle experiments, nanomechanical action upon live cells was studied using confocal microscopy aided by a super-resolution technique called Phase Modulation Nanoscopy. Applicants used two experimental methods. In the first method (Method A), the molecular motors were loaded into the cell media and the imaging was initiated within 5 minutes to 24 hours. In the second method, (Method B), the molecular motors were loaded into the cell media, incubated for 30 minutes to 24 hours, and then washed three times with fresh molecular motor-free media before imaging.
Next, Applicants used the smaller nanomachine, 3. Initial control experiments (blank) were performed without nanomachines being present. UV-induced (355 nm) PC-3 necrosis is not initiated until approximately scan 20 (corresponding to 300 second continuous scanning UV exposure, 400 nJ/voxel total dwell time), characterized by massive disruption and rupture of the mitochondrial network and subsequent well-pronounced auto-fluorescent signal detectable in the nucleoli and nucleus wall (FIG. 7A). This is observable by the nucleoli membrane permeabilization and DNA damage at the onset of necrosis. The UV-induced necrosis reaches final stages at approximately scan 40 (corresponding to 600 seconds) that is consistent with characteristic extracellular membrane rupture and homogenous cytosolic auto-fluorescence, indicating loss of cellular organelle boundaries.
as §1, §2, §3
as §4, with “DMSO. […]” for “DMSO.”

HEK293 cells = assay: Whole cell patch clamp electrophysiology; format: cell-based, human
Protocol: FIGS. 16A-B show whole-cell patch clamp studies of the dynamic effects of UV-induced molecular mechanical action of compound 3 upon HEK293 cells. Also shown are control studies using compound 3 without UV activation, UV-exposed rotor-free control molecule 5, and no molecular additives x. Compounds 3 and 5 were used at 1.0 μM concentrations. […] Similarly, the rotor-free compound 5, and no molecular additive x, show no inward currents during UV illumination (center two traces). Cells were held at −70 mV in voltage clamp mode and UV exposure began 15 seconds after the start of the recording. Each recording is a biological replicate and all traces are shown (n=4 recordings from different cells for 3+UV; n=3 recordings from different cells for each other condition). […] The white arrows (lower right image) highlight membrane blebbing that appears only in the cells treated with UV-activated compound 3. The scale bar represents 10 μm and is applicable for each micrograph.
The dynamic effects of nanomechanical action upon cellular membranes were then studied through the whole cell patch clamp electrophysiology of human embryonic kidney 293 cells (HEK293) commonly used for electrophysiological interrogation. […] These inward currents were not observed in the absence of UV illumination or during UV illumination of non-rotor-bearing control 5 or UV illumination of untreated cells (FIG. 16A).

NIH 3T3 cells [2] = assay: Uptake, localization and toxicity of fluorescent nanomachines without UV-light exposure; format: cell-based, mouse
Protocol: as §5
Applicants first studied the effect of the nanomachines on the cells without UV-light exposure. […] However, due to 1 and 2 having well-pronounced visible fluorescence properties corresponding to the cy5 and BODIPY addends (FIGS. 5A-B and Table 1, respectively), their intracellular uptake, motion or protein/organelle-assisted trafficking are clearly observed. The two luminescent compounds display very different localization patterns.
Applicants undertook a series of control experiments to confirm active molecular motor uptake and suspected endocytosis, using a range of nanomachine loading concentrations (0.10-1.00 μM, Method A) and incubation times of 5-60 minutes at 4° C., which is a temperature of general endocytosis inhibition.

[3] = NIH 3T3, Method B (washed three times)
[4] = PC-3, Method B (washed three times)

O=c1c2cc(C#CCCO)ccc2sc2ccc(C#CCCO)cc12 [Compound 5, reference compound]
effect on necrosis upon standardized UV-exposure (in words) (NIH 3T3 cells [1]; NIH 3T3, Method A): no effect on necrosis
Time of Full Necrosis (NIH 3T3 cells [1]; NIH 3T3, Method A (no washing)): 600 s
Time of Initial Necrosis (NIH 3T3 cells [1]; NIH 3T3, Method A (no washing)): 300 s
% acceleration for full necrosis (NIH 3T3 cells [1]; NIH 3T3, Method A): 0%
effect on necrosis upon standardized UV-exposure (in words) (PC-3 cells; PC-3, Method A): no effect on necrosis
Time of Full Necrosis (PC-3 cells; PC-3, Method A (no washing)): 600 s
Time of Initial Necrosis (PC-3 cells; PC-3, Method A (no washing)): 300 s
% acceleration for full necrosis (PC-3 cells; PC-3, Method A): 0%
membrane currents without UV illumination (in words) (HEK293 cells; HEK293, 1.0 μM, 4 minute recording, no UV): no change in membrane currents
inward ionic currents during UV illumination (in words) (HEK293 cells; HEK293, Method B, UV 355 nm, 1.0 μM): not observed

OCCC#Cc1ccc2c(c1)C(=C1CCc3ccc4ccccc4c31)c1cc(C#CCCO)ccc1S2 [NonMe-3, reference compound]
Time of Full Necrosis (PC-3 cells; PC-3, Method A (no washing)): 540 s
Time of Initial Necrosis (PC-3 cells; PC-3, Method A (no washing)): 270 s
% acceleration for full necrosis (PC-3 cells; PC-3, Method A): 10%
effect on necrosis upon standardized UV-exposure (in words) (PC-3 cells; PC-3, Method A, listed as compound analogous to 3 but without the allylic methyl): only slightly faster than the motor-free system
effect on necrosis upon standardized UV-exposure (in words) (PC-3 cells; PC-3, Method A, listed as demethylated 3): slowed necrosis

CC1=CC(C)=[N+]2C1=C(c1ccccc1C(=O)OCc1cn(CCC#Cc3ccc4c(c3)C(=C3c5c(ccc6ccccc56)C[C@H]3C)c3cc(C#CCCn5cc(COC(=O)c6ccccc6C6=C7C(C)=CC(C)=[N+]7[B-](F)(F)n7c(C)cc(C)c76)nn5)ccc3S4)nn1)c1c(C)cc(C)n1[B-]2(F)F (racemic) [Compound 2]
Time of Full Necrosis (NIH 3T3 cells [1]; NIH 3T3, Method A (no washing)): 585 s
Time of Initial Necrosis (NIH 3T3 cells [1]; NIH 3T3, Method A (no washing)): 300 s
% acceleration for full necrosis (NIH 3T3 cells [1]; NIH 3T3, Method A): 2.5%
Time of Full Necrosis (NIH 3T3 cells [1]; [3]): 570 s
Time of Initial Necrosis (NIH 3T3 cells [1]; [3]): 300 s
% acceleration for full necrosis (NIH 3T3 cells [1]; NIH 3T3, Method B): 5%
localized fluorescence at 4° C. (endocytosis inhibition) (in words) (NIH 3T3 cells [2]; NIH 3T3, 0.10-1.00 μM, 5-60 minutes, 4° C.): no detectable localized fluorescence
intracellular localization without UV (in words) (NIH 3T3 cells [2]; NIH 3T3, Method A, 0.10-1.00 μM): enters the cell and localizes in the mitochondria
necrosis without UV-light exposure (in words) (NIH 3T3 cells [2]; NIH 3T3, Method A, no UV): do not induce accelerated necrosis
toxicity in the applied time and concentration regimes (in words) (NIH 3T3 cells [2]; NIH 3T3, no UV): non-toxic

Cc1ccc(S(=O)(=O)OCCC#Cc2ccc3c(c2)C(=C2c4c(ccc5ccccc45)C[C@H]2C)c2cc(C#CCCOS(=O)(=O)c4ccc(C)cc4)ccc2S3)cc1 (racemic) [Compound 4]
Time of Full Necrosis (NIH 3T3 cells [1]; NIH 3T3, Method A (no washing)): 540 s
Time of Initial Necrosis (NIH 3T3 cells [1]; NIH 3T3, Method A (no washing)): 270 s
% acceleration for full necrosis (NIH 3T3 cells [1]; NIH 3T3, Method A): 10%
Time of Full Necrosis (PC-3 cells; PC-3, Method A (no washing)): 540 s
Time of Initial Necrosis (PC-3 cells; PC-3, Method A (no washing)): 270 s
% acceleration for full necrosis (PC-3 cells; PC-3, Method A): 10%

C[C@@H]1Cc2ccc3ccccc3c2C1=C1c2cc(C#CCCn3cc(CCC(=O)N[C@@H](CC(=O)O)C(=O)NCC(=O)N[C@@H](CCC(=O)O)C(=O)N[C@@H](C)C(N)=O)nn3)ccc2Sc2ccc(C#CCCn3cc(CCC(=O)N[C@@H](CC(=O)O)C(=O)NCC(=O)N[C@@H](CCC(=O)O)C(=O)N[C@@H](C)C(N)=O)nn3)cc21 [Compound 7]
Time of Full Necrosis (NIH 3T3 cells [1]; NIH 3T3, Method A (no washing)): 390 s
Time of Initial Necrosis (NIH 3T3 cells [1]; NIH 3T3, Method A (no washing)): 150 s
% acceleration for full necrosis (NIH 3T3 cells [1]; NIH 3T3, Method A): 40%
Time of Full Necrosis (NIH 3T3 cells [1]; [3]): 390 s
Time of Initial Necrosis (NIH 3T3 cells [1]; [3]): 165 s
% acceleration for full necrosis (NIH 3T3 cells [1]; NIH 3T3, Method B): 40%
selectivity for targeted PC-3 cells over non-targeted control cells (in words) (PC-3 cells; NIH 3T3 and CHO as non-targeted controls): No selectivity was observed
Time of Full Necrosis (PC-3 cells; PC-3, Method A (no washing)): 360 s
Time of Initial Necrosis (PC-3 cells; PC-3, Method A (no washing)): 165 s
% acceleration for full necrosis (PC-3 cells; PC-3, Method A): 35%
Time of Full Necrosis (PC-3 cells; [4]): 390 s
Time of Initial Necrosis (PC-3 cells; [4]): 180 s
% acceleration for full necrosis (PC-3 cells; PC-3, Method B): 35%

C[C@@H]1CSc2ccc3ccccc3c2C1=C1c2cc(C#CCCO)ccc2Sc2ccc(C#CCCO)cc21 (racemic) [Compound 6, reference compound]
effect on necrosis upon standardized UV-exposure (in words) (NIH 3T3 cells [1]; NIH 3T3, Method A): no enhanced necrosis
Time of Full Necrosis (NIH 3T3 cells [1]; NIH 3T3, Method A (no washing)): 615 s
Time of Initial Necrosis (NIH 3T3 cells [1]; NIH 3T3, Method A (no washing)): 300 s
% acceleration for full necrosis (NIH 3T3 cells [1]; NIH 3T3, Method A): 0%
effect on necrosis upon standardized UV-exposure (in words) (PC-3 cells; PC-3, Method A): no enhanced necrosis
Time of Full Necrosis (PC-3 cells; PC-3, Method A (no washing)): 600 s
Time of Initial Necrosis (PC-3 cells; PC-3, Method A (no washing)): 300 s
% acceleration for full necrosis (PC-3 cells; PC-3, Method A): 0%
